Reference: PMC4533973, “Synthesis and Evaluation of Chloramphenicol Homodimers: Molecular Target, Antimicrobial Activity, and Toxicity against Human Cells” (PLoS ONE, 2015)
Like-named read-outs stand apart in the source and are kept apart here. Marks after values point to notes of the source that are not given here.

Experiments:
MRSA (GRE2272) = assay: Antibacterial activity (growth inhibition, EC50); assay type: cell-based; conditions: Staphylococcus aureus
Text: (§1) A.S. Mankin (University of Illinois). E. coli ΔtolC strain BL21 DE3 with impaired AcrAB-TolC, a proton-dependent MDR efflux pump causing multidrug resistance, was offered by Dr D.N. Wilson (University of Munich) and included in our study to test if this mechanism of resistance affects the efficacy of CAM dimers. […] I. Spiliopoulou (National Reference Laboratory for Staphylococci, School of Medicine, University of Patras, Greece). Finally, E. coli strain Rosetta(DE3)pLysS, containing a chloramphenicol resistant gene in the pLysS plasmid, was purchased from Novagen and was also included in our study. Briefly, S. aureus or E. coli cells (200 μl of a 0.700 OD560 preculture) containing wild-type or mutant ribosomes were added in 3.8 ml of LB (Luria-Bertani) medium and grown at 37°C in the presence or absence of CAM or CAM dimers until the optical density of the control culture (grown in the absence of drug) reached the value 0.700 at 560 nm. For E. faecium and P. aeruginosa cultures, TSB (Tryptic Soy Broth) medium was used, instead of LB medium, in order to achieve exponential doubling times between 25 and 35 minutes. From dose-response curves, the half-maximal effective concentration (EC50) for each compound and strain was estimated. EC50 represents the molar concentration of a compound that produces 50% of the maximal possible effect. The EC50 values were mathematically determined by non linear regression fitting of the observed culture optical-density values, expressed as the percentage of 0.700 (y), into Hill Equation, y=min+max−min/1+(x/EC50)^−n where min and max are the lowest and highest observed values of the culture optical density, respectively, x the concentration of the tested compound, and n the Hill coefficient that represents the largest absolute value of the curve slope. EC50 is equal to the x- value of the sigmoid’s midpoint. Fitting was performed using the Four Parameter Logistic Curve of the SigmaPlot Program Version 11.0 (Systat Software, Inc) for Exact Graphs and Data Analysis.

E. faecium (GRE5152) = assay: Antibacterial activity (growth inhibition, EC50); assay type: cell-based; conditions: Enterococcus faecium
Text: as §1

MRSA (GRE2691) = assay: Antibacterial activity (growth inhibition, EC50); assay type: cell-based; conditions: Staphylococcus aureus
Text: as §1

S. aureus (WT) = assay: Antibacterial activity (growth inhibition, EC50); assay type: cell-based; conditions: Staphylococcus aureus
Text: as §1

CAM acetyltransferase = biological target: T1, CAM acetyltransferase (Escherichia coli, UniProt P62577); assay: CAM acetyltransferase assay (compounds as acetyl-acceptor substrates); assay type: biochemical, E. coli
T1 construct: purchased Sigma-Aldrich; host or cells: E. coli
Protocol: Fig 6 Kinetic analysis of the CAM acetyltransferase reaction using CAM or compounds 4 and 5 as substrates. […] The product of the enzymatic reaction, coenzyme A, reacted with 5,5’-dithio-bis(2-nitrobenzoic acid) to yield 5-thio-2-nitrobenzoate which absorbs at 412 nm, with a micromolar extinction coefficient equal to 0.0136. The Vmax and Km values were determined by fitting the substrate concentrations [S] and the obtained ΔA412nm/min (Vo) values into equation V 0 = V max[S]/(K m + [S]). The obtained Vmax values were divided by 0.0136 to convert their units in μM·min^-1 (http://www.sigmaaldrich.com/technical-documents/protocols/biology/enzymatic-assay-of-chloramphenicol-acetyltransferase.html). The ratio Vmax/Km for each curve is given in parenthesis. TEXT PRINTED IN THE PICTURE: no label printed: (0.178 min^-1) | no label printed: (0.139 min^-1) | no label printed: (0.008 min^-1) DOUBTS OF THE COPYIST ABOUT THIS PICTURE: The picture prints no substance label and no measure name for the three values. They stand beside the curves marked with triangles (0.178 min^-1), circles (0.139 min^-1) and squares (0.008 min^-1). […]

E. coli (A2058G) = assay: Antibacterial activity (growth inhibition, EC50); assay type: cell-based, Escherichia coli; conditions: for EC50: Escherichia coli
Text: as §1

E. coli (ΔtolC) = assay: Antibacterial activity (growth inhibition, EC50); assay type: cell-based, Escherichia coli; conditions: Escherichia coli, BL21-DE3
Text: as §1

[1] = test system: E. coli Rosetta(DE3)pLysS; assay: Antibacterial activity (growth inhibition, EC50); assay type: cell-based, Escherichia coli; conditions: for EC50: Escherichia coli
Text: as §1

E. coli (WT) = assay: Antibacterial activity (growth inhibition, EC50); assay type: cell-based, Escherichia coli; conditions: for EC50: Escherichia coli, LB medium, 37°C, OD560; for EC50(cell growth)/IC50(puro): wild-type E. coli, IC50(puro) calculated from Ki* at 2 mM puromycin
Text: as §1

[2] = test system: 70S ribosomes from E. coli (central loop of Domain V of 23S rRNA); assay: Time-resolved footprinting of RI and R*I complexes; assay type: binding; conditions: ratio to control lane R
Text: The behavior of compound 5 was compared to that of compound 4, which is bearing a flexible linker of the same length. The footprinting analysis exploits the slow-binding character of the dimers and has been successfully applied in studying various slow-binding inhibitors of the PTase. To overcome potential drawbacks resulting from protections caused by natural PTase substrates, naked 70S ribosomes were used instead of complex C. To footprint the RI complex, compounds 4 or 5 used in excess, and ribosomes were incubated at 25°C for 2 s, and then treated with chemical probes for 3 min to modify accessible nucleosides in 23S rRNA. Because the first step of binding, R + I ⇄ RI, equilibrates rapidly while the formation of R*I occurs slowly, the main product formed during such a short time interval was complex RI (>93%). To footprint the R*I complex, each dimer and ribosomes were incubated for 10 min, a time interval that is over than ten half-lives required for the attainment of the steady state. Because the isomerization constant, k on/k off, is at least 2.2 (see Table 1), most of the ribosomes added in the reaction mixture (>70%) were in the form of R*I complex at the end of this time interval.
Chemical modification of complexes RI and R*I with DMS, kethoxal, or CMCT, primer extension analysis, and gel electrophoresis of the primer extension products were performed as previously described. […] Quantitative scanning of the gels, and normalization of the band intensities were made as previously shown. Values indicated in Table 2 denote the ratio between the normalized intensity of a band of interest and the normalized intensity of the corresponding band in the control lane (ribosomes non-treated with CAM or CAM dimers).

[3] = R*I complex (10 min incubation)
[4] = LB medium, 37°C, OD560, read-out: EC50

T1 sequence (P62577 whole entry, looked up): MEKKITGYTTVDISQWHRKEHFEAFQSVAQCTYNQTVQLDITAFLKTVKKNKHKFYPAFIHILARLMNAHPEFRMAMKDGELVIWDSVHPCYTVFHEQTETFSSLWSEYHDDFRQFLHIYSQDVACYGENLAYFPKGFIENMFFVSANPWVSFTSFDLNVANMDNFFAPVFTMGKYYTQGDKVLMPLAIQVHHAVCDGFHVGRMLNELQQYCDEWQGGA

| SMILES | behaviour as substrate of CAM acetyltransferase (CAM acetyltransferase) | EC50 (E. coli (A2058G)) | EC50 (E. coli (ΔtolC)) | EC50 [1] | EC50 (E. coli (WT)) | EC50(cell growth)/IC50(puro) (E. coli (WT)) | Relative reactivity of A2058 [2, 3] | Relative reactivity of A2059 ([2]; R*I complex) | Relative reactivity of A2062 ([2]; R*I complex) | Relative reactivity of A2451 ([2]; R*I complex) | Relative reactivity of G2505 ([2]; R*I complex) | Relative reactivity of U2506 ([2]; R*I complex) | Relative reactivity of U2609 ([2]; R*I complex) | Relative reactivity of A2058 ([2]; RI complex (2 s incubation)) | Relative reactivity of A2059 ([2]; RI complex) | Relative reactivity of A2062 ([2]; RI complex) | Relative reactivity of A2451 ([2]; RI complex) | Relative reactivity of G2505 ([2]; RI complex) | Relative reactivity of U2506 ([2]; RI complex) | Relative reactivity of U2609 ([2]; RI complex) | also measured |
| --- | --- | --- | --- | --- | --- | --- | --- | --- | --- | --- | --- | --- | --- | --- | --- | --- | --- | --- | --- | --- | --- |
| O=C(CCCCC(=O)N[C@H](CO)[C@H](O)c1ccc([N+](=O)[O-])cc1)N[C@H](CO)[C@H](O)c1ccc([N+](=O)[O-])cc1 [Compound 4, N^1,N^6-Bis((1R,2R)-1,3-dihydroxy-1-(4-nitrophenyl)propan-2-yl)adipamide] | behaves like CAM as substrate of CAM acetyltransferase | 97 ± 3.3 µM | 98 ± 16.3 µM | > 200 µM | 83.6 ± 6.2 µM | 7.45 ± 0.81 | 0.90 ± 0.09 | 0.70 ± 0.07 ^b ^, ^c | 0.67 ± 0.05 ^b ^, ^c | 0.77 ± 0.05 ^b | 0.44 ± 0.03 ^b | 0.70 ± 0.04 ^b | 1.00 ± 0.07 | 0.99 ± 0.07 | 0.94 ± 0.06 | 0.88 ± 0.08 ^b | 0.67 ± 0.04 ^b | 0.43 ± 0.03 ^b | 0.70 ± 0.05 ^b | 1.00 ± 0.10 | EC50 (MRSA (GRE2272)): > 200 µM; EC50 (E. faecium (GRE5152)): 99.8 ± 46.9 µM; EC50 (MRSA (GRE2691)): 76.9 ± 8.6 µM; EC50 (S. aureus (WT)): 28.3 ± 1.8 µM |
| O=C(N[C@H](CO)[C@H](O)c1ccc([N+](=O)[O-])cc1)c1ccc(C(=O)N[C@H](CO)[C@H](O)c2ccc([N+](=O)[O-])cc2)cc1 [Compound 5, N^1,N^4-Bis ((1R,2R)-1,3-dihydroxy-1-(4-nitrophenyl)propan-2-yl)-terephthalamide] | almost inactive | 18 ± 1.5 µM | 23.7 ± 1.5 µM | 23.5 ± 1.3 µM | 25.3 ± 1.9 µM | 14.06 ± 1.75 | 0.32 ± 0.04 ^b ^, ^c | 0.33 ± 0.08 ^b ^, ^c | 0.40 ± 0.09 ^b ^, ^c | 0.41 ± 0.05 ^c | 0.35 ± 0.06 ^c | 0.33 ± 0.05 ^b ^, ^c | 0.79 ± 0.08 ^b ^, ^c | 0.93 ± 0.06 | 0.96 ± 0.08 | 0.80 ± 0.06 ^b | 0.40 ± 0.03 ^b | 0.38 ± 0.05 ^b | 0.47 ± 0.05 ^b | 1.00 ± 0.08 | EC50 (MRSA (GRE2272); [4]): 16.9 ± 4.4 µM; EC50 (E. faecium (GRE5152); TSB medium, 37°C, OD560, read-out: EC50): 40.9 ± 3.8 µM; EC50 (MRSA (GRE2691); [4]): 24 ± 3.1 µM; EC50 (S. aureus (WT); [4]): 15.4 ± 1.9 µM; activity relative to CAM in inhibiting the growth of the A2058G mutant (E. coli (A2058G)): equivalent to CAM; activity compared to CAM in inhibiting the growth of Rosetta(DE3)pLysS E. coli cells [1]: five-fold higher activity |
